Laboratory results taken from article PMC8704315, “Lichen-Derived Compounds and Extracts as Biologically Active Substances with Anticancer and Neuroprotective Properties” (Pharmaceuticals, 2021).
“And” between values parts separate entries of the source, which are not always exact repeats. Equal values may be shown once. “Also recorded” adds a separate entry of the source. Read-outs that look alike come from different tables or passages of the source.

How the values were obtained:
[1] = target: T1, indoleamine 2,3-dioxygenases 2 (IDO2) (Homo sapiens, UniProt Q6ZQW0); assay: Universal IDO1/IDO2/TDO Inhibitor Screening Assay Kit, IDO2; assay type: biochemical; conditions: for inhibition at 100 µg/mL: read-out: Inhibition (%) IDO2
T1 construct: purchased BPS Bioscience, Inc. (San Diego, CA, USA)
T1 sequence (Q6ZQW0 1-407): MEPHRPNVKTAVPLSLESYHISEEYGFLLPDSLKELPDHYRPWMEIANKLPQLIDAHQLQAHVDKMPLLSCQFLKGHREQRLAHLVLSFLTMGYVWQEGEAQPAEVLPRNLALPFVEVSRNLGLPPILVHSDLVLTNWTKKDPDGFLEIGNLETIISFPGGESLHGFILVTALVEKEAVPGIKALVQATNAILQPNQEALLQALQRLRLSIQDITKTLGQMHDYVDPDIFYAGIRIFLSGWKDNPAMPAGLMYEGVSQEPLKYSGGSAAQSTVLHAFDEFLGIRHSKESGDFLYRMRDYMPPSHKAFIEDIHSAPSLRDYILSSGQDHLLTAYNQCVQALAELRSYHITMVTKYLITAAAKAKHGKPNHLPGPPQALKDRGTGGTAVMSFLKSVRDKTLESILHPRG
Method: (§1) This colorimetric assay is based on the measurement of the ability of IDO1, IDO2 and TDO to convert L-tryptophan into N-formylkynurenine (NFK). The experiments were performed according to the manufacturer’s guidelines. The final concentration of the compounds and extracts in the reaction mixture was 100 µg/mL. The amount of NFK was measured spectrophotometrically at 320 nm using an Epoch BioTek microplate reader (BioTek Instruments, Inc., Winooski, VT, USA). The samples were run in triplicate and the results were expressed as mean ± SEM.

[2] = target: T2, indoleamine 2,3-dioxygenases 1 (IDO1) (Homo sapiens, UniProt P14902); assay: Universal IDO1/IDO2/TDO Inhibitor Screening Assay Kit, IDO1; assay type: biochemical; conditions: ± SEM, three measurements
T2 construct: purchased BPS Bioscience, Inc. (San Diego, CA, USA)

[3] = target: T3, tryptophan 2,3-dioxygenase (TDO) (Homo sapiens, UniProt P48775); assay: Universal IDO1/IDO2/TDO Inhibitor Screening Assay Kit, TDO; assay type: biochemical; conditions: for inhibition at 100 µg/mL: read-out: Inhibition (%) TDO
T3 construct: purchased BPS Bioscience, Inc. (San Diego, CA, USA)
Method: as §1

T98G cell line = assay: MTT cell viability assay, 48 h, T98G; assay type: cell-based, Human; conditions: for IC50: Homo sapiens, T98G, read-out: IC50 T98G
Method: Stock solutions in dimethylsulfoxide DMSO (Sigma-Aldrich, St. Louis, MO, USA), (10 mM for compounds and 10 mg/mL for extracts) were prepared and stored at −20 °C. For the experiments, the stock solutions were diluted ex tempore to the final selected concentration with complete cell culture medium.
Human glioblastoma A-172 and T98G cell lines were purchased from the American Type Culture Collection (ATCC, Manassas, VA, USA), and the European Collection of Authenticated Cell Cultures (ECACC, Salisbury, UK), respectively. The cells were grown at 37 °C in 95% humidified and 5% CO2 atmosphere. Media recommended by the provider were used to cultivate the cells: ATCC-formulated Dulbecco’s modified Eagle’s medium (DMEM) (Sigma Aldrich, St. Louis, MO, USA), and ATCC-formulated Eagle’s Minimum Essential Medium (EMEM) (Sigma-Aldrich, St. Louis, MO, USA) were used for A-172 and T98G cells, respectively. Moreover, the media were supplemented with 10% fetal bovine serum (FBS) (Biowest, France) and 1% antibiotics (penicillin and streptomycin) solution (Sigma-Aldrich, St. Louis, MO, USA). The medium for the T98G cell line was additionally supplemented with 2 mM glutamine, 1% non-essential amino acids, and 1% sodium pyruvate (all obtained from Sigma Aldrich, St. Louis, MO, USA). For the experiments, the amount of FBS was reduced to 5%. All experiments were carried out 24 h after the cells were seeded on 96-well plates.
The effect of the tested compounds and extracts on GBM cell viability was assessed by measuring the ability of cells to metabolize 3-(4,5-dimethylthiazol-2-yl)-2,5-diphenyl-tetrazolium bromide (MTT), as previously described. In brief, 1 × 10^4 cells per well were seeded on 96-well plates. After 24 h incubation, they were treated with varying concentrations of lichen-derived compounds (1, 5, 10, 25, 50 and 100 µM) and extracts (1, 5, 10, 25, 50 and 100 µg/mL). Cells treated with medium containing the respective concentrations of DMSO (Sigma-Aldrich, St. Louis, MO, USA) were used as a control. After 48 h incubation the cells were washed with phosphate-buffered saline (PBS) buffer and incubated for 4 h in the presence of PBS containing 0.5 mg/mL MTT salt (Merck, Darmstadt, Germany). Next, the formazan crystals were dissolved in acidic isopropanol. In order to enhance dissolution of formazan crystals the plates were shaken on the orbital shaker for 30 min. Finally, the absorbance was measured at λ = 570 nm and λ = 690 nm on the microplate reader (Tecan Infinite M200). All the experiments were repeated three times with at least four measurements per assay.

[4] = target: T4, glutathione reductase (GR) (Saccharomyces cerevisiae, UniProt P41921); assay: Effect on glutathione reductase activity; assay type: biochemical; conditions: 444.4 μg/mL in the reaction mixture; on GR Inhibition under Reaction Conditions (%): key: -: not active
T4 construct: purchased Sigma Aldrich G3664
Method: Sample (20 µL, 5 mg/mL of pure DMSO) was mixed with 10 μL of EDTA solution and 12 μL of GSSG solution and incubated for 5 min at 25 °C; 4 μL of NADPH solution and was then added (all reagents were dissolved in […] sodium phosphate buffer, pH 7.6), and the initial absorbance (340 nm) was recorded. The reaction was then started by addition of 2 U glutathione reductase (2 μL, Sigma Aldrich no G3664), 177 μL of […] sodium phosphate buffer, and the absorbance was recorded after 5 min of incubation at 25 °C. Concentrations of reagents in the final mixture ([…]) were as follows: 0.5 mM EDTA, 10 mM GSSG and 10 mM NADPH. Blank sample was prepared with buffer instead of the sample and background was measured (mixture containing studied sample and buffer only). One unit of enzyme activity has been defined as nMol of NADPH consumed/min·mL sample, in comparison with nMol of NADPH consumed/min in blank (reagent) sample [75].

[5] = 100 µg/mL, read-out: Inhibition (%) IDO1

T4 sequence (P41921 17-483): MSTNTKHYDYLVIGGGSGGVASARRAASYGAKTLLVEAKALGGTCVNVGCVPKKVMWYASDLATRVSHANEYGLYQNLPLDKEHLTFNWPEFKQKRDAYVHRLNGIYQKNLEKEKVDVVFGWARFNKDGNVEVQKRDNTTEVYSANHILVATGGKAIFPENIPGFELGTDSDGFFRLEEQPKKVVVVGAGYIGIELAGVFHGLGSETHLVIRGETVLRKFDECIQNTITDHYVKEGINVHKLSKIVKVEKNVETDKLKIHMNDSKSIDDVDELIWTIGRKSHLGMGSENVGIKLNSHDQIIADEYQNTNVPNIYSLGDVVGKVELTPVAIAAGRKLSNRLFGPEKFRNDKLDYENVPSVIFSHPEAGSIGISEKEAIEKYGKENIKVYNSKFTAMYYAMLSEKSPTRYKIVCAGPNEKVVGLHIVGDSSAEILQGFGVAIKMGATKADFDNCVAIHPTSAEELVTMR
T2 sequence (P14902 whole entry, species assumed): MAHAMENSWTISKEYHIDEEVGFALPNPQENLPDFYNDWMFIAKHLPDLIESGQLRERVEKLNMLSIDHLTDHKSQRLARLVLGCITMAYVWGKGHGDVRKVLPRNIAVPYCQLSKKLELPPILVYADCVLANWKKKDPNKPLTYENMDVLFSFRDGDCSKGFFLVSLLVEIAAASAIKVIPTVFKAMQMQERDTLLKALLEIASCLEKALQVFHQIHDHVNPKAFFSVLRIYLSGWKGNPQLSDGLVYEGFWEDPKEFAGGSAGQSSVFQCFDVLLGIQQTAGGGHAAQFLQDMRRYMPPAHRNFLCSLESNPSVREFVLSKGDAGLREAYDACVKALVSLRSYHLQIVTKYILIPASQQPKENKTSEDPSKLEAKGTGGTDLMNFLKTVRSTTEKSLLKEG
T3 sequence (P48775 whole entry, species assumed): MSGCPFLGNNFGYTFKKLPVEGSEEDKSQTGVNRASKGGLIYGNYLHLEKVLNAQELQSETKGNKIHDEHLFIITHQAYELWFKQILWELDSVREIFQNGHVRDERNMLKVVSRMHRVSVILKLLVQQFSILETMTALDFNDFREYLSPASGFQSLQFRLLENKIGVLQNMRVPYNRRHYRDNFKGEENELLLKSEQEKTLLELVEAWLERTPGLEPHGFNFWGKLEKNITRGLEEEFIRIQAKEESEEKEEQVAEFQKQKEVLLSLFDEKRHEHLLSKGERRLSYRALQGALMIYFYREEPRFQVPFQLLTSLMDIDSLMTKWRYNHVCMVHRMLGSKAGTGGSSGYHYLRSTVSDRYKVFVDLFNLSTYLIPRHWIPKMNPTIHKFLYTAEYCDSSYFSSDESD

Row | Compound | inhibition at 100 µg/mL [1] | Inhibition (%) IDO1 ([2]; 100 µg/mL) | inhibition at 100 µg/mL ([2]; read-out: Inhibition (%) IDO1, 100 µg/mL) | inhibition at 100 µg/mL [3] | IC50 (T98G cell line; 48 h) | GR Inhibitory Activity (nMol Depleted NADPH/min Incubation) [4] | inhibition at 444.4 µg/mL ([4]; read-out: GR Inhibition under Reaction Conditions (%)) | inhibition at 100 µg/mL ([1]; 100 µg/mL) | inhibition at 100 µg/mL [2, 5] | inhibition at 100 µg/mL ([3]; 100 µg/mL) | IC50 (T98G cell line; 48 h treatment, MTT, ± SEM) | reduction in cell viability T98G (T98G cell line; highest tested concentration (100 µM), 48 h MTT) | GR Inhibition under Reaction Conditions (%) [4] | Inhibition (%) IDO2 ([1]; 100 µg/mL) | Inhibition (%) TDO ([3]; 100 µg/mL)
1 | CC(=O)C1=C(O)C=C2Oc3c(C(C)=O)c(O)c(C)c(O)c3C2(C)C1=O (single isomer, unassigned; (-)) [(−)-Usnic acid, (−)-usnic acid] | < 10% | 21.6 ± 0.9% | 21.6 ± 0.85% | < 10% | 13 µg/mL and 37.8 µM | 710.2 ± 42.3 nMol Depleted NADPH/min Incubation | 18.2 ± 2.2% |  |  |  |  |  |  |  | 
2 | COc1cc(C)c(C(=O)Oc2cc(C)c(C(=O)O)c(O)c2)c(O)c1 [Evernic acid, evernic acid] |  | 32.8 ± 1.9% |  |  |  |  |  | < 10% | 32.8 ± 1.93% | < 10% | > 33.2 µg/mL and > 100 µM | ~ 20% | - |  | 
3 | Cc1cc(O)c(C=O)c2c1C(=O)Oc1c(CO)c(O)c3c(c1O2)C(O)OC3=O (stereo not shown) [Salazinic acid, salazinic acid] |  | did not exhibit any inhibition effect; also recorded: not active |  |  |  |  |  | < 10% | < 10% | < 10% | > 38.8 µg/mL and > 100 µM |  | - | did not exhibit any inhibition effect | did not exhibit any inhibition effect
